Laboratory results reported in patent US20130023575A1, “COMPOSITIONS AND METHODS FOR THE TREATMENT OF OCULAR SURFACE ALLERGIES” (priority 2011, published 2013).

Assay: bromfenac in solution in the flowable mucoadhesive polymer carrier
Type: physicochemical
Details: by weight of the composition
Description: As used herein the term “retained in or carried with” or “retaining or carrying” embraces generally all ways that bromfenac can be associated with the flowable mucoadhesive polymer. For example, bromfenac can be in aqueous solution dispersed throughout the polymer. A bromfenac concentration of up to about 0.36% will be in solution mixed with or dispersed throughout the flowable mucoadhesive polymer carrier. Bromfenac can also be in suspension with the polymer depending on its concentration. For example, when bromfenac is used in an amount more than about 0.36% by weight of the composition, some of the bromfenac can be in suspension with the polymer carrier while an amount of up to about […] of bromfenac will still be in solution and mixed with the polymer carrier.

With `Nc1c(CC(=O)O)cccc1C(=O)c1ccc(Br)cc1` [bromfenac] the “bromfenac concentration in solution mixed with or dispersed throughout the polymer carrier” value was “up to 0.36%”.
